Reference: US20260102457A1, “ANTICOAGULANT-PEPTIDE NANOGRANULES FOR THROMBOSIS-ACTUATED ANTICOAGULATION” (The Penn State Research Foundation, priority 2022, published 2026)
Where no end group is shown, it is not given here.

Columns and labels:
[1] = system: bovine platelet rich plasma (PRP); conditions: equivalent heparin concentration of 2 μg/mL, FIG. 3b
Procedure: Here, bovine PRP was acquired from the top clear layer after centrifuging citrated bovine whole blood at 600 rcf for 30 minutes (4° C.) with minimum acceleration/break ramps. […] Clot formation was initiated by combining 450 μL bovine PRP, 50 μL HMG treatment solution, and 50 μL 0.1M CaCl2) in a 24-well plate. DI water was included as a negative control. Samples were mixed on an oscillating rocker plate and clotting time determined as the time required for observable aggregate formation upon recalcification.

[2] = system: activated platelets; test: Platelet localization and binding (confocal microscopy, flow cytometry); format: cell-based, bovine; conditions: 15 minutes incubation
Procedure: Bovine platelets were acquired from bovine PRP by centrifugation (800 rcf, 15 minutes), labelled with DiI (5 μg/mL), washed, and resuspended in PBS. At the time of treatment, platelets were further centrifuged (800 rcf, 15 minutes) to replace PBS supernatant with treatment solutions. Treatments of AMCA/FITC HMG, FITC-MAD1, or AMCA-heparin were prepared in PBS at equivalent concentrations, incubated with platelet samples for 15 minutes and then transferred to 4-well chambered slide (500 μL) before imaging using an Olympus FluoView 1000 confocal microscope (Tokyo, Japan).
MAD1-platelet binding was analyzed via flow cytometry by resuspending platelets in PBS containing 1 mg/mL FITC-MAD1. Blank PBS was used as an untreated control. After a 15-minute incubation, treated platelets were centrifuged (800 rcf, 15 minutes) and resuspended in PBS before analysis using a Guava Flow Cytometer (Millipore Sigma; Burlington, MA). Data was analyzed by FlowJo software.

[3] = In vivo heparin serum/plasma concentration over time; design: species or system C57BL/6J mice; conditions: for time of highest heparin serum concentration: first sampling timepoint; for time to complete clearance from serum: post administration; for heparin serum half-life (t1/2): single dose 10 IU heparin
Procedure: (§1) Murine studies were performed under IACUC protocol 202102036. HMG particles were prepared using rhodamine-heparin doped 20 vol % into unlabeled heparin before electrospray synthesis. Dialyzed HMG particles were concentrated by Centri Vap DNA Concentrator to achieve 0.5 mg/mL equivalent heparin. Sterile 10×PBS was diluted ten-fold into samples before injection of a 200 μL volume into C57BL/6J mice. Two groups (n=4) received free heparin given via tail vein injection or injected subcutaneously in the neck scruff. A third group (n=4) received HMG sample as a subcutaneous depot in the neck scruff. All mice received a final heparin dose of 10 IU. At each time point, mice were sacrificed, and blood samples collected into citrate tubes via cardiac puncture. Coagulation time was determined on whole blood samples via INTEM analysis on a ROTEM delta coagulation analyzer (Werfen; Bedford, MA). Clotting times were chosen to evaluate the efficacy of each treatment's ability to inhibit thrombin-linked platelet activation and initial fibrin polymerization/recruitment. INTEM coagulation analysis was selected based on its established sensitivity for the presence of heparin. For a typical experiment, serum is isolated via centrifugation (1000 rcf, 10 minutes) and fluorescence measurements taken (λex=560 nm, λem=590 nm). Kidney, liver, and spleen tissues were also collected and homogenized before centrifugation at 10,000 rcf for 20 minutes to remove bulk fibrous structures. 100 μL of the remaining supernatant was evaluated for heparin presence via fluorescence measurements (λex=560 nm, λem=590 nm) using a BioTek Cytation 3 Plate Reader.

[4] = Tissue biodistribution of heparin (liver, kidney, spleen fluorescence); format: in vivo, C57BL/6J mice; conditions: kidneys
Procedure: as §1, with “INTEM coagulation analysis was selected based on its established sensitivity for the presence of heparin.” left out, “Kidney, liver, and spleen tissues were also collected and homogenized before centrifugation at 10,000 rcf for 20 minutes to remove bulk fibrous structures.” left out

[5] = system: whole blood coagulation; test: In vivo anticoagulation: blood clotting time (INTEM, ROTEM); design: species or system C57BL/6J mice
Procedure: as §1

[6] = clinical background; cited from earlier work

time of highest heparin serum concentration ([3]; intravenous) [min]	time to complete clearance from serum ([3]; intravenous) [h]	heparin serum half-life (t1/2) ([3]; intravenous) [h]	time of transient spike in heparin serum concentration after dosing ([3]; subcutaneous) [h]	time of highest heparin serum concentration ([3]; subcutaneous) [min]	time to complete clearance from serum ([3]; subcutaneous) [h]	heparin serum half-life (t1/2) ([3]; subcutaneous) [h]	Substance	clotting time of blood treated with peptide alone [1]	binding to activated platelets [2]	tissue biodistribution / clearance route of heparin ([4]; intravenous)	tissue biodistribution / clearance route of heparin ([4]; subcutaneous)	blood clotting time ([5]; intravenous, 0.5 hour time point) [min]	time to return to basal clotting activity ([5]; intravenous, post administration, basal 3.5 minutes)	change in clotting behavior ([5]; subcutaneous, 0.5-24 hours)	plasma half-life (t1/2) [6] [h]
							KRWHWWRRHWVVW-NH2 [MAD1, de novo designed tryptophan-rich antitubercular peptide with C-terminal amido group]	significant increase in clotting time	high avidity						
30	~6	1.3	4 to 6	30	~6	1.4	heparin			initially excreted through the renal system, with additional hepatic clearance observed at ˜6 hours	early liver uptake that later shifted to renal clearance	35.5	approximately 2 hours	negligible changes in clotting behavior for all time points except 6 hours	~1
